Source: PubChem BioAssay AID588772 (The Scripps Research Institute Molecular Screening Center, 2011)
The source made the active and inactive calls. The rule behind the calls is not given here.

System: 3C-like protease (3CLpro), SARS coronavirus
Experiment: SARS 3CLpro protease inhibitors, late-stage follow-up, biochemical, fluorescence, single concentration, set 4 (AID 588772)
Details: recombinant 3CLpro, fluorogenic substrate cleavage; at 100 µM; stronger effect = higher value

In the case of `Cc1ccc(C(C(=O)NC(C)(C)C)N(C(=O)c2ccco2)c2ccc(C(C)(C)C)cc2)cn1` (stereo not drawn), the inhibition is reported as -4.1% (inactive).

For `Cc1noc(C)c1-c1ccc(N(C(=O)c2ccco2)C(C(=O)NC(C)(C)C)c2cccnc2)cc1` (stereo not drawn), the inhibition was 85.1%.

In the case of `CC(C)(C)NC(=O)C(c1cccnc1)N(C(=O)c1cc2ccccc2o1)c1ccc(C(C)(C)C)cc1` (stereo not drawn), the inhibition is reported as 14.3% (inactive).

In the case of `CC(C)(C)NC(=O)C(c1cccnc1)N(C(=O)c1ccco1)c1ccc(-c2ccncc2)cc1` (stereo not drawn), the inhibition is reported as 27.8% (inactive).

With `CC(C)(C)NC(=O)C(c1cccnc1)N(C(=O)c1ccco1)c1ccc(OCc2ccccc2)cc1` (stereo not drawn) the inhibition was 53.2%.

Work on `CC(C)(C)NC(=O)C(c1cccnc1)N(C(=O)c1ccco1)c1ccc(-c2ccccc2)cc1` (stereo not drawn) yielded an inhibition of 94.8%.

Work on `CC(C)(C)NC(=O)C(c1cccnc1)N(C(=O)c1ccco1)c1ccc(I)cc1` (stereo not drawn) yielded an inhibition of 66.3%.

With `CC(C)(C)NC(=O)C(c1cnccn1)N(C(=O)c1ccco1)c1ccc(C(C)(C)C)cc1` (stereo not drawn) the inhibition was 96.2%.

For `CC(C)(C)NC(=O)[C@H](c1cccnc1)N(C(=O)c1cnc[nH]1)c1ccc(C(C)(C)C)cc1`, the inhibition was 97.6%.

For `CC(C)(C)NC(=O)C(c1ccn[nH]1)N(C(=O)c1ccco1)c1ccc(C(C)(C)C)cc1` (stereo not drawn), the inhibition was 6.3% (inactive).

`CC(C)(C)NC(=O)C(c1cnc[nH]1)N(C(=O)c1ccco1)c1ccc(C(C)(C)C)cc1` (stereo not drawn) was tested, and the inhibition was 22.8% (inactive).

Compound `CC(C)(C)NC(=O)C(c1cccnc1)N(C(=O)c1ccco1)c1ccc(-c2cccc(F)c2F)cc1` (stereo not drawn) has an inhibition of 90.2%.

Work on `CC(C)(C)NC(=O)C(c1ccnnc1)N(C(=O)c1ccco1)c1ccc(C(C)(C)C)cc1` (stereo not drawn) yielded an inhibition of 94.3%.

In the case of `CC(C)(C)NC(=O)C(c1cccnc1)N(C(=O)c1ccco1)c1ccc(-c2cncnc2)cc1` (stereo not drawn), the inhibition is reported as 48.6% (inactive).

With `CC(C)(C)NC(=O)C(c1cn[nH]c1)N(C(=O)c1ccco1)c1ccc(C(C)(C)C)cc1` (stereo not drawn) the inhibition was 16.1% (inactive).

With `CC(C)(C)NC(=O)C(c1ccccn1)N(C(=O)c1ccco1)c1ccc(C(C)(C)C)cc1` (stereo not drawn) the inhibition was 0.7% (inactive).

`Cn1cnc(C(=O)N(c2ccc(C(C)(C)C)cc2)C(C(=O)NC(C)(C)C)c2cccnc2)c1` (stereo not drawn) showed an inhibition of 51.3%.

For `CC(C)(C)NC(=O)C(c1cccnc1)N(C(=O)c1ccco1)c1ccc(Oc2ccccc2)cc1` (stereo not drawn), the inhibition was 40.9% (inactive).

`CC(C)(C)NC(=O)C(c1cccnc1)N(C(=O)c1ccco1)c1ccc(-c2ccnc(F)c2)cc1` (stereo not drawn) was tested, and the inhibition was 40.3% (inactive).

Work on `CC(C)(C)NC(=O)C(c1cccnc1)N(C(=O)c1ccco1)c1ccc(Cc2ccccc2)cc1` (stereo not drawn) yielded an inhibition of 77.6%.

`CC(C)(C)NC(=O)C(c1cccnc1)N(C(=O)c1ccc(C(F)(F)F)o1)c1ccc(C(C)(C)C)cc1` (stereo not drawn) was tested, and the inhibition was 17.8% (inactive).

Work on `COc1cccc(Oc2ccc(N(C(=O)c3ccco3)C(C(=O)NC(C)(C)C)c3cccnc3)cc2)c1` (stereo not drawn) yielded an inhibition of 52%.

Work on `CC(C)(C)NC(=O)C(c1ccncc1)N(C(=O)c1ccco1)c1ccc(C(C)(C)C)cc1` (stereo not drawn) yielded an inhibition of 60.2%.

`CC(C)(C)c1ccc(N(Cc2cccnc2)C(=O)c2cnc[nH]2)cc1` was tested, and the inhibition was 46.8% (inactive).

For `CC(C)(C)NC(=O)C(c1cccnc1)N(C(=O)c1ccco1)c1ccc(-c2cccnc2)cc1` (stereo not drawn), the inhibition was 64.1%.

Compound `CC(C)(C)NC(=O)C(c1cccnc1)N(C(=O)c1ccco1)c1ccc(-c2cccn2C(=O)OC(C)(C)C)cc1` (stereo not drawn) has an inhibition of 56.9%.

In the case of `CC(C)(C)NC(=O)[C@@H](c1cccnc1)N(C(=O)c1cnc[nH]1)c1ccc(C(C)(C)C)cc1`, the inhibition is reported as 47.1% (inactive).

`CC(C)(C)NC(=O)C(c1cn[nH]n1)N(C(=O)c1ccco1)c1ccc(C(C)(C)C)cc1` (stereo not drawn) was tested, and the inhibition was 22.7% (inactive).
